Results reported in patent US7838645B2, “Function of autophagy genes in cell death” (University of Maryland College Park, priority 2004, dated 2010).
Where a SMILES comes first, the peptide text is derived from it. The star is where a group is joined. Cbz = O=C(OCc1ccccc1)*; CH2Cl = ClC*; CH2F = FC*

Columns and labels:
[1] = test system: L929 cells; test: Transmission electron microscopy morphometric analysis of autophagy in L929 cells; format: cell-based, mouse; settings: for Apoptotic cell / Autophagic and apoptotic features / Autophagic cells(total) / Lytic/necrotic cell / Mild autophagy (cell with 10~19 vacuoles) / Moderate autophagy (cell with 20~29 vacuoles) / Normal cells / Severe Autophagy (cell with 30 or more vacuoles) / Vacuolated(but not autophagic): TEM, of total 100
Method: Cells were fixed in 3% glutaraldehyde in 0.1 M MOPS buffer (pH 7.0) for 8 hrs at room temperature, 3% glutaraldehyde/1% paraformaldehyde in 0.1 M MOPS buffer (pH 7.0) for 16 hours at 4° C., post-fixed in 1% osmium tetroxide for 1 hour, embedded in Spurr's resin, sectioned, double stained with Uranyl acetate and Lead citrate, and analyzed using a Zeiss EM 10 transmission electron microscope. For each treatment or control group, at least 100 cells from randomly chosen transmission electron microscopy fields were analyzed for quantification of morphological features. Cells with ≧10 vacuoles were scored as autophagy positive. Cells were stratified as follows: 0 (≦9 vacuoles/cell), 1(10-19 vacuoles/cell), 2 (20-29 vacuoles/cell), 3 (≧30 vacuoles/cell). Scores were ranked and comparisons of treatment to control groups were made using the Mann-Whitney U test using the Statview 5.0.1 program. Statistical analysis of the differences in FIG. 1, panels D, E, F, and G and FIG. 2A, B, D were significant (p<0.0001).
(§1) In mouse L929 fibroblastic cells, tumor necrosis factor (TNF), oxidants, ceramide, and radiation can induce caspase-independent death (11). […] L929 cells were treated with 1 ul of dimethyl sulfoxide (DMSO) FIG. 1A (a and c) or 20 uM zVAD (b and d) for 24 hours and examined by phase contrast microscopy (a and b); or 4′,6′-diamidino-2-phenylindole-staining and fluorescent microscopy (c and d). Magnification: 200×. […] The percentage of vaculated cells is the fraction of cells that have 10 or more autophagic vacuoles by TEM. Statistical analysis is shown in FIG. 4 and morphometric analysis of zVAD-induced autophagy in L929 cells is quantitated in Table 1 setforth below.

[2] = test system: L929 cells; test: Cell death analysis (propidium iodide staining, flow cytometry) in L929 cells; format: cell-based, mouse; settings: for Induction of cell death (% cell loss): 40 hours, FIG. 9
Method: (§2) Cell viability was determined after treatments by staining with propidium iodide (2 μg/mL) and flow cytometric analysis on a FACScan. Percent cell death was quantitated as previously described (26).
as §1, with “below. […]” for “below.”
L929 cells were treated with 1 ul/ml DMSO, 20 uM zVAD, 20 uM zFA, 20 uM LEHD, 20 uM DEVD, or 20 uM zAAD for 40 hours, and % cell loss was quantified by flow cytometry. […] Because zVAD is a potent inhibitor of caspase-8, it likely exerted its death effect through inhibition of caspase-8.

[3] = test system: RAW264.7 cells; test: Cell loss by flow cytometry in RAW264.7 cells; format: cell-based, mouse; settings: FIG. 6
Method: as §2
(§3) The RAW264.7 cells were treated with 0.1 ug/ml Wortmannin (WM) or 10 mM 3-methyladenine (3-MA) for 1 hr and the with 100 uM zVAD for 48 hrs, after which cell loss was quantitated by flow cytometry. […] Mouse peritoneal macrophages cells were treated with 0.1 ug/ml Wortmannin (WM) or 10 mM 3-methyladenine (3-MA) for 1 hr and with 100 uM zVAD for 24 hrs, after which cell loss were quantitated by flow cytometry.

[4] = test system: mouse peritoneal macrophages; test: Cell loss by flow cytometry in mouse peritoneal macrophages; format: cell-based; settings: FIG. 7
Method: as §2, §3

[5] = test system: c-Jun N-terminal kinase (JNK); test: Detection of phosphorylated JNK/SAPK by Western blot in L929 cells; format: cell-based, mouse; settings: zVAD 24 hrs, 2% FBS, FIG. 2B
Method: L929 cells were treated with DMSO or zVAD for 24 hrs in the presence of 2% FBS. The cell lysate was spun for 10 minutes at 13000 rpm. 20 ul of the c-Jun beads (SAPK/JNK assay kit from Cell Signaling) were added to the supernatant and incubated overnight at 4° C. Beads were washed 4 times with lysis buffer and resuspended in 50 ul of 1× sample buffer. Samples were boiled for 5 minutes and analyzed by SDS-PAGE and Western blot for phosphorylated SAP/JNK by probing with phospho-JNK antibody.
Death receptors can elicit nonapoptotic death through the “receptor-interacting protein” (RIP), a death-domain-containing, serine-threonine kinase (6, 7). […] For example, cells were treated with zVAD after transfection with RIP RNAi or nonspecific (NS) oligonucleotides. Reduction in cell number (solid bars) and the fractions of cells with autophagic features based on TEM (open bars) are shown in FIG. 2A. FIG. 2B is a western blot for phospho-JNK (left lane) or total JNK protein (right lane) after zVAD treatment. zVAD activated c-Jun N-terminal kinase (JNK) that is also activated by RIP in response to cytokines.

[6] = test system: RIP; test: RIP cleavage by caspase-8 (Western blot, FIG. 11); format: cell-based; settings: cells treated with zVAD
Excerpt: It was observed that the signaling through the serine-threonine kinase RIP is essential for autophagic cell death. When RIP is cleaved and inactivated by caspase 8, then a mechanism is provided for the prevention of autophagic cell death. However, inhibition of caspase 8 allows RIP to transmit the signal needed to kill the cell through the autophagic pathway. […] Clearly, zVAD treatment prevents RIP from constitutive caspase-8 cleavage. The indicated band is the 42 kD proteolytic product that is characteristic of caspase-8 cleavage (1).

COC(=O)CC(NC(=O)C(C)NC(=O)C(NC(=O)OCc1ccccc1)C(C)C)C(=O)CF (stereo not drawn) [zVAD, Benzyloxycarbonyl-Valyl-Alanyl-Aspartyl-(O-methyl)-fluoromethylketone] (Cbz-Val-Ala-Asp(OMe)-CH2F; configuration not given here)
Time course of zVAD induced autophagy (percentage of vacuolated cells, 10 or more autophagic vacuoles by TEM) ([1]; FIG. 1D): vacuolated cells accumulated prior to cell death
Apoptotic cell ([1]; zVAD 0 hrs): 0
Autophagic and apoptotic features ([1]; zVAD 0 hrs): 0
Autophagic cells(total) ([1]; zVAD 0 hrs): 0
Lytic/necrotic cell ([1]; zVAD 0 hrs): 0
Mild autophagy (cell with 10~19 vacuoles) ([1]; zVAD 0 hrs): 0
Moderate autophagy (cell with 20~29 vacuoles) ([1]; zVAD 0 hrs): 0
Normal cells ([1]; zVAD 0 hrs): 85
Severe Autophagy (cell with 30 or more vacuoles) ([1]; zVAD 0 hrs): 0
Vacuolated(but not autophagic) ([1]; zVAD 0 hrs): 15
Apoptotic cell ([1]; zVAD 8 hrs): 4
Autophagic and apoptotic features ([1]; zVAD 8 hrs): 1
Autophagic cells(total) ([1]; zVAD 8 hrs): 76
Lytic/necrotic cell ([1]; zVAD 8 hrs): 0
Mild autophagy (cell with 10~19 vacuoles) ([1]; zVAD 8 hrs): 55
Moderate autophagy (cell with 20~29 vacuoles) ([1]; zVAD 8 hrs): 20
Normal cells ([1]; zVAD 8 hrs): 19
Severe Autophagy (cell with 30 or more vacuoles) ([1]; zVAD 8 hrs): 1
Vacuolated(but not autophagic) ([1]; zVAD 8 hrs): 0
Apoptotic cell ([1]; zVAD 12 hrs): 1
Autophagic and apoptotic features ([1]; zVAD 12 hrs): 1
Autophagic cells(total) ([1]; zVAD 12 hrs): 93
Lytic/necrotic cell ([1]; zVAD 12 hrs): 3
Mild autophagy (cell with 10~19 vacuoles) ([1]; zVAD 12 hrs): 24
Moderate autophagy (cell with 20~29 vacuoles) ([1]; zVAD 12 hrs): 59
Normal cells ([1]; zVAD 12 hrs): 2
Severe Autophagy (cell with 30 or more vacuoles) ([1]; zVAD 12 hrs): 10
Vacuolated(but not autophagic) ([1]; zVAD 12 hrs): 0
Time after which death was complete ([2]; 20 uM zVAD, FIG. 1B): 40 h
Time at which death began after zVAD treatment ([2]; 20 uM zVAD, FIG. 1B): 12 h
Induction of death of L929 cells ([2]; 20 uM, 24 hours, microscopy): directly induced the death of L929 cells
Induction of cell death (% cell loss) ([2]; 20 uM, flow cytometry): induced cell death
Induction of cell death ([3]; 100 uM zVAD for 48 hrs): induced cell death by the autophagic pathway
Induction of cell death ([4]; 100 uM zVAD for 24 hrs): induced cell death by the autophagic pathway
Activation of JNK (phospho-JNK Western blot) [5]: activated
RIP cleavage fragments characteristic of caspase-8 activity [6]: no cleaved fragments were found

COC(=O)CC(NC(=O)C(C)NC(=O)C(C)NC(=O)OCc1ccccc1)C(=O)CCl (stereo not drawn) [ZAAD, benzyloxycarbonyl-Alanyl-Alanyl-Aspartyl-(O-methyl)-chloromethylketone] (Cbz-Ala-Ala-Asp(OMe)-CH2Cl; configuration not given here)
Induction of cell death (% cell loss) ([2]; 20 uM, flow cytometry): no ability to induce cell death

C[C@@H]1C[C@@H]([C@H](O)CC2CC(=O)NC(=O)C2)C(=O)[C@@H](C)C1 [cycloheximide, Cycloheximide]
Effect of protein synthesis inhibition on zVAD-induced cell death ([2]; FIG. 2C): blocked cell death

O=C1c2ccccc2-c2n[nH]c3cccc1c23 [JNK inhibitor II, Anthra[1,9-cd]pyrazol-6 (2H)-one 1,9-pyrazoloanthrone]
Effect on zVAD-induced cell death (% cell loss) ([2]; 1 ug/ml inhibitor for 1 hour, then 20 uM zVAD for 40 hours, flow cytometry, FIG. 8): blocked zVAD-induced cell death

COC(=O)CCC(NC(=O)C(CC(=O)OC)NC(=O)OCc1ccccc1)C(=O)NC(C(=O)NC(CC(=O)OC)C(=O)CF)C(C)C (stereo not shown) [DEVD, benzyloxycarbonyl-Aspartyl-(O-methyl)-Glutamyl-(O-methyl)-Valyl-Aspartyl-(O-methyl)-fluoromethylketone]
Induction of cell death (% cell loss) ([2]; 20 uM, flow cytometry): no ability to induce cell death

Cn1cnc(N)c2ncnc1-2 [3-MA, 3-methyladenine]
Effect on zVAD-induced cell loss ([2]; WM 0.1 ug/ml or 3-MA 10 mM for 1 hour, then 20 uM zVAD for 36 hours, FIG. 1E): reduction in cell loss
Effect on zVAD-induced cell death ([3]; 0.1 ug/ml WM or 10 mM 3-MA for 1 hr, then 100 uM zVAD for 48 hrs): arrested zVAD-induced cell death
Effect on zVAD-induced cell death ([4]; 0.1 ug/ml WM or 10 mM 3-MA for 1 hr, then 100 uM zVAD for 24 hrs): arrested zVAD-induced cell death
